Data: ChEMBL document CHEMBL1122462, “Potential antiatherosclerotic agents. 4. [(Functionalized-alkyl)amino]benzoic acid analogues of cetaben” (1983)
Where “and” joins values, the source holds several entries; their conditions need not be identical. Identical values can stand only once.

How the values were obtained:
[1] = system: Rattus norvegicus; experiment: In vivo Triglyceride lowering activity at a dose of 0.10 % of the diet; format: functional
[2] = target: T1, Sterol O-acyltransferase 1 (Rattus norvegicus) (UniProt O70536); experiment: In vitro inhibitory activity against acyl coenzyme A:cholesterol acyltransferase; set-up: concentration or dose not given beside the values; details: concentration not given here
T1 sequence (whole entry): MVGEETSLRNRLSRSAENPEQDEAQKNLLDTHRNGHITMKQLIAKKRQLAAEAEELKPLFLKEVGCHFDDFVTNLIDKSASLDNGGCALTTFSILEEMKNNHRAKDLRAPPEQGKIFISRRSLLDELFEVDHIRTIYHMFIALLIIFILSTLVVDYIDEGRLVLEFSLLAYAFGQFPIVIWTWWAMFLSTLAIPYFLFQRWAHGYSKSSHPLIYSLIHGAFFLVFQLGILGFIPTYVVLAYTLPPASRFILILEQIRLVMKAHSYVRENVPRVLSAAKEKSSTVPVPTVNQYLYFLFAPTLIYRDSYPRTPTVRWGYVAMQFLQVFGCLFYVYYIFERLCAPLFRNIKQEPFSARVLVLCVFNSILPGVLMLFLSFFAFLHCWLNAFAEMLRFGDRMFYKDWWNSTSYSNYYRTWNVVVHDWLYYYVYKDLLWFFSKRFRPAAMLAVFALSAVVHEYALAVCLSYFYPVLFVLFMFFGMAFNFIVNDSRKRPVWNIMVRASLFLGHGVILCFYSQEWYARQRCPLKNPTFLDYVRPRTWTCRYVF

[3] = system: Rattus norvegicus; experiment: In vivo sterol lowering activity at dose of 0.10 % of the diet; format: functional

Structure (SMILES) | serum triglyceride level (% of control) [1] | inhibition [2] | serum sterol level, % of control [3]
COCCCCCCCCCCCCCCCCN(C(C)=O)c1ccc(C(=O)O)cc1 | 93% | < 22% | 100%
CCOC(=O)c1ccc(NCCCCCCCCCCCOc2ccc(C(=O)OC)cc2)cc1 | <72% | < 52% | 100%
C[Si](C)(C)CCCCCCCCCCCNc1ccc(C(=O)O)cc1 |  | < 56% | 
CCCCCCCCCCCCCCCC(=O)Nc1ccc(C(=O)OCC)cc1 |  |  | 91%
O=C(O)CCCCCCCCCCCCCCCNc1ccc(C(=O)O)cc1 |  | 0% and 9% | 
CCCCCCCCCCC(S)CCCCCNc1ccc(C(=O)O)cc1 (stereo not drawn) | <43% | < 79% | 84%
CCOC(=O)c1ccc(NCCCCCCCCCCNc2ccc(C(=O)OCC)cc2)cc1 | 98% | 7% | 140%
O=C(O)c1ccc(NCCCCCCCCCCNc2ccc(C(=O)O)cc2)cc1 | 100% | 8% | 93%
CCOC(=O)c1ccc(N(CCCCCCCCCCCBr)C(=O)OCc2ccccc2)cc1 | 91% | < 71% | 100%
O=C(O)c1ccc(NCCCCCCCCCCCCNc2ccc(C(=O)O)cc2)cc1 | 89% | < 60% | 103%
O=C(O)c1ccc(N2CCCC2=O)cc1 |  | 0% | 
CCOC(=O)c1ccc(NCCCCCCCCCCCSc2ccc(C(=O)OCC)cc2)cc1 | 132% | < 45% | 102%
Br.CCOC(=O)c1ccc(NC(=O)CCCCCCCCCCSC(=N)N)cc1 | 96% | < 91% | 92%
CCCCCCCCCCCCCCCCN(CS(=O)(=O)O)c1ccc(C(=O)O)cc1 |  | 7% and < 32% | 
CCCCCCCCCCC(O)CCCCCNc1ccc(C(=O)OCC)cc1 (stereo not drawn) | <39% | < 51% | 93%
CCOC(=O)c1ccc(NCCCCCCCCCCCCNc2ccc(C(=O)OCC)cc2)cc1 | <68% | 2% | 103%
CCOC(=O)c1ccc(NCCCCCCCCCCCCCCCCS)cc1 | <51% | 8% | 90%
C[Si](C)(C)CCCNc1ccc(C(=O)O)cc1 |  | < 23% and 12% | 
C[Si](C)(C)CCCCCCCCCCCCCCNc1ccc(C(=O)O)cc1 |  | < 60% | 
CCOC(=O)c1ccc(NCCCCCCCCCCCC2CCCCC2)cc1 | <50% | 12% | 80%
CCOC(=O)c1ccc(NC(=O)CCCCCCCCCCBr)cc1 | 100% | < 71% | 115%
CCOC(=O)c1ccc(NCCCCCCCCCCCNc2ccc(C(=O)OCC)cc2)cc1 | 67% | < 68% | 92%
CC(C)(C)CCCCCCCCCCCCCCNc1ccc(C(=O)O)cc1 |  | < 74% | 
